Bounds are passed on as bounds.

The test system of data set [1] is macrophages (cells RAW 264.7). The experiment in a line: Cytotoxicity on macrophages, Blue Trypan. It counts as cell-based, human. How it is done:
(§1) Study of the cytotoxicity on macrophages (cells RAW 264.7)
(§2) The non-toxic maximal concentration (CMA) was determined by the technique to the Blue Trypan according to has method described in Audisio and al. (Eur. J. Med. Chem., 52: 44-50, 2012).

In data set [2] the test system is Intramacrophagic amastigotes of L. amazonensis. The experiment in a line: Growth inhibition of intramacrophagic amastigotes of L. amazonensis in RAW 264.7 (SYBRGREEN, qPCR). It counts as cell-based, Leishmania amazonensis. From the text: (§3) A strain of Leishmania amazonensis (MHOM/BR/73/M2269) were used. Dronedarone hydrochloride and meglumine antimoniate were supplied by Sanofi. Amphotericin B (désoxycholate) and miltefosine were bought at Sigma-Aldrich.
2/Intramacrophagic amastigotes of L. amazonensis (parasites hosted in macrophages, as found in dermis, during the cutaneous Leishmaniosis infection).
(§4) The first cellular model which cultivates in a medium based on M199, allows defining the intrinsic activity of a substance on the parasite itself while the second cellular model integrates the capacity of the substance to cross the membrane of the macrophage and that of the phagolysosome. The used macrophages are cells RAW 264.7, which cultivate in medium based on DMEM with 10% of foetal serum of veal. • Determination of the IC50 of each of the molecules
(§5) Solutions of dronedarone in the DMSO, meglumine antimoniate and miltefosine in the water, and amphotericin B in an isotonic glucose solution (G5) were prepared before every experiment. The evaluations in vitro were the object of three independent experiments duplicate. The assays were realized by quantifying the parasitic DNA with the SYBRGREEN as described by Audisio and al. (Eur. J. Med. Chem., 52: 44-50, 2012) as well as by qPCR for intramacrophagic amastigotes with amplification of the alpha-tubuline of the parasite. The results obtained with both methods are similar.
For orientation: Real-time PCR tracks product formation cycle by cycle.

Data set [3] has as its system Axenic amastigotes of L. amazonensis. The experiment in a line: Growth inhibition of axenic amastigotes of L. amazonensis (SYBRGREEN DNA quantification). It counts as cell-based, Leishmania amazonensis. As to conditions: 72 hours of contact.
Text: as §3
1/Axenic amastigotes of L. amazonensis (isolated parasites)
as §4, §5

Data set [4] has as its system L. major's axenic amastigotes. Put plainly: Growth inhibition of axenic amastigotes of L. major. As to conditions: 72 hours. It counts as cell-based, Leishmania major. The text has this:
(§6) Strains of Leishmania donovani (MHOM/ET/67/HU3) and Leishmania major (MHOM/SU/73/5-ASKH) were used for this study.
(§7) 1/Axenic amastigotes of L. donovani and L. major (isolated parasites)
(§8) The model of axenic amastigotes is cultivated in a medium based on M199 and allows defining the intrinsic activity of a substance on the parasite itself while the model of intramacrophagic amastigotes integrates the capacity of the substance to cross the membrane of the macrophage and that of the phagolysosome.
(§9) The solutions of dronedarone in the DMSO, meglumine antimoniate and miltefosine in the water, were prepared before every experiment. The evaluations in vitro were the object of three independent experiments.
(§10) The assays were realized by quantifying the parasitic DNA with the SYBRGREEN as described by Audisio and al. (Eur. J. Med. Chem., 52: 44-50, 2012).

Data set [5] deals with Leishmania amazonensis strains resistant to meglumine antimoniate. The experiment in a line: Chemosensitivity of L. amazonensis strains resistant to meglumine antimoniate, promastigote form. It counts as cell-based. The protocol:
In vitro study on Leishmania amazonensis strains resistant to meglumine antimoniate (Glucantime®)
On Leishmania amazonensis strains resistant to_meglumine antimoniate (IC50=200 mM) under promastigote form, chemosensitivity to dronedarone is similar that one observed on strains that are not resistant to meglumine antimoniate (active principle of Glucantime®).

The nature of data set [6]: Cytotoxicity on macrophages, Blue Trypan. It counts as cell-based, human. The protocol: as §1, §2
In data set [7] the test system is intramacrophagic amastigotes of L. donovani. Put plainly: Growth inhibition of intramacrophagic amastigotes of L. donovani in RAW 264.7. It counts as cell-based, Leishmania donovani.
Text: as §6
(§11) 2/Intramacrophagic amastigotes of L. donovani and L. major (parasites hosted in macrophages, as found in dermis, during the cutaneous Leishmaniosis infection).
as §8
(§12) The used macrophages are cells RAW 264.7, which cultivate in a medium based on DMEM with 10% of foetal serum of veal.
as §9, §10

Data set [8] relates to axenic amastigotes of L. donovani. Put plainly: Growth inhibition of axenic amastigotes of L. donovani. It counts as cell-based. As to conditions: Leishmania donovani, 72 hours.
Text: as §6, §7, §8, §9, §10

Data set [9] concerns L. major's intramacrophagic amastigotes. The experiment in a line: Growth inhibition of intramacrophagic amastigotes of L. major in RAW 264.7. It counts as cell-based, Leishmania major.
Text: as §6, §11, §8, §12, §9, §10

Setting [10] is: RAW 264.7 macrophages, Blue Trypan.
Where [11] appears, read: Leishmania donovani, RAW264.7, 72 hours.
The mark [12] stands for this setting: Leishmania amazonensis, RAW264.7, RAW 264.7, 72 hours of contact.
Where [13] appears, read: Leishmania major, RAW264.7, 72 hours.

Broadly, the IC50 is the concentration that gives 50% inhibition. As for `C[C@@H]1[C@H](O)[C@@H](C)/C=C/C=C/C=C/C=C/C=C/C=C/C=C/[C@H](O[C@@H]2O[C@H](C)[C@@H](O)[C@H](N)[C@@H]2O)C[C@@H]2O[C@](O)(C[C@@H](O)C[C@@H](O)[C@H](O)CC[C@@H](O)C[C@@H](O)CC(=O)O[C@H]1C)C[C@H](O)[C@H]2C(=O)O` [amphotericin B], in data set [1] (setting [10]), the “non-toxic maximal concentration (CMA)” value worked out at 6.25 µM. Besides, the IC50 is 0.047 ± 0.005 µM in data set [2] (RAW 264.7, 72 hours of contact) and 0.031 ± 0.002 µM in [3].

What is called CC50 is the concentration giving 50% cytotoxicity. Read a low CC50 as harm at low concentration. Consider `CCCCc1oc2ccc(NS(C)(=O)=O)cc2c1C(=O)c1ccc(OCCCN(CCCC)CCCC)cc1` [dronedarone, 2-n-Butyl-3-[4-(3-di-n-butylaminopropoxy)benzoyl]-5-methylsulphonamidobenzofuran], for which the IC50 turned out to be 2.55 ± 0.51 µM in [4] (Leishmania major); 1.67 ± 0.1 µM in data set [7] (setting [11]); 47.4 ± 6.27 µM in data set [8]; 0.5 ± 0.22 µM in [2] (setting [12]); 1.32 ± 0.12 µM in data set [9] (setting [13]); 0.34 ± 0.06 µM in [3] (Leishmania amazonensis). Moreover, in data set [5], the “chemosensitivity compared with strains not resistant to meglumine antimoniate” value is “similar”. In addition, the “non-toxic maximal concentration (CMA)” value in data set [1] (human) amounted to 12.5 µM. The compound also gave a CC50 in data set [6] greater than 12.5 µM. For the same compound, the “therapeutic index (CC50/IC50)” value in data set [7] is reported as greater than 7; in data set [9], greater than 9.

Regarding `CCCCCCCCCCCCCCCCOP(=O)([O-])OCC[N+](C)(C)C` [miltefosine], the IC50 worked out at 5.57 ± 1.5 µM in data set [4] (Leishmania major); 0.88 ± 0.1 µM in [7] (setting [11]); 13 ± 1.25 µM in data set [8]; 1.87 ± 0.032 µM in [2] (setting [12]); 0.72 ± 0.11 µM in data set [9] (setting [13]); 0.9 ± 0.2 µM in data set [3] (Leishmania amazonensis). The “non-toxic maximal concentration (CMA)” value in data set [1] (human) was 50 µM.

In the case of meglumine antimoniate, the IC50 in data set [4] is greater than 1000 µM; in [7] (72 hours), 390 ± 40.5 µM; in [2] (RAW 264.7, 72 hours of contact) it was 134 ± 10.4 µM; in data set [9] (72 hours), 348 ± 79.9 µM; in [3], 908 ± 159 µM. For the same compound, in [1] (setting [10]), the “non-toxic maximal concentration (CMA)” value is greater than 200 µM.

(Values after US9700540B2, “Dronedarone for use in leishmaniasis, formulations and associations for use in leishmaniasis” (SANOFI, priority 2012, dated 2017).)
